The source of these data is patent publication US20240327359A1, “3-ISOXAZOLIDINONE COMPOUND, PREPARATION METHOD, HERBICIDAL COMPOSITION AND APPLICATION THEREOF” (QINGDAO KINGAGROOT CHEMICAL COMPOUND CO., LTD., priority 2021, published 2024).

Molecules are shown by their SMILES.

Holding throughout (assay type): in vivo
Test [1] concerns Lolium perenne. Put plainly: Weeding effect in pre-emergence stage. As to conditions: 2 weeks. An excerpt: (§1) The activity level criteria for plant damage (i.e., growth control rate) are as follows:
(§2) The above growth control rates are fresh weight control rates.
(§3) Monocotyledonous and dicotyledonous weed seeds (Descurainia sophia, Capsella bursa-pastoris, Abutilon theophrasti, Galium aparine, Stellaria media, Lithospermum arvense, Rorippa indica, Alopecurus aequalis, Alopecurus japonicus, Eleusine indica, Beckmannia syzigachne, Sclerochloa dura, Phleum paniculatum, Veronica didyma, Bromus japonicus, Aegilops tauschii, Phalaris arundinacea, Amaranthus retroflexus, Chenopodiaceae, Commelina communis, Sonchus arvensis, Convolvulus arvensis, Cirsium setosum, Solanumnigrum, Acalypha australis, Digitaria sanguinalis, Echinochloa crusgalli, Setaria viridis, Setaria glauca, Leptochloa chinensis, Monochoria vaginalis, Sagittaria trifolia, Scirpus juncoides, Cyperus rotundus, Cyperus iria, Cyperus difformis, Fimbristylis, Portulaca oleracea, Xanthium sibiricum, Pharbitis nil, Conyza Canadensis, etc.) and major crop seeds (wheat, corn, rice, soybean, cotton, oilseed rape, millet, sorghum, potato, sesame, ricinus, etc.) were placed in plastic pots filled with soil, then covered with 0.5-2 cm of soil, allowed to grow in a good greenhouse environment. The test plants were treated on the day of sowing. The tested compounds of the present invention were respectively dissolved in acetone, then added with Tween 80, diluted with a certain amount of water to obtain a solution of a certain concentration, and sprayed by a spray tower onto the plants. After the application, the plants were cultured for 2 weeks in the greenhouse, and then the experimental results of the weeding were recorded. The doses of the used compounds were 3, 6, 12, 24, 48 g ai./mu (1 mu=1/15 ha), and the averages were obtained from three replicates.

Test [2] has as its system Veronica didyma. Briefly: Weeding effect in pre-emergence stage. As to conditions: 2 weeks.
From the text: as §1, §2, §3

Test [3] has as its system Descurainia sophia. Briefly: Weeding effect in pre-emergence stage. As to conditions: 2 weeks.
From the text: as §1, §2, §3

Test [4] deals with Leptochloa chinensis. Put plainly: Weeding effect in pre-emergence stage. As to conditions: 2 weeks.
From the text: as §1, §2, §3

Test [5] concerns Echinochloa crusgalli. Briefly: Weeding effect in pre-emergence stage. The settings on record: 2 weeks.
From the text: as §1, §2, §3

For test [6], the system named is Digitaria sanguinalis. Briefly: Weeding effect in post-emergence stage. The settings on record: 720 g a.i./ha, 3 weeks after application.
From the text: as §1, §2
(§4) Monocotyledonous and dicotyledonous weed seeds (Descurainia sophia, Capsella bursa-pastoris, Abutilon theophrasti, Galium aparine, Stellaria media, Lithospermum arvense, Rorippa indica, Alopecurus aequalis, Alopecurus japonicus, Eleusine indica, Beckmannia syzigachne, Sclerochloa dura, Phleum paniculatum, Veronica didyma, Bromus japonicus, Aegilops tauschii, Phalaris arundinacea, Amaranthus retroflexus, Chenopodiaceae, Commelina communis, Sonchus arvensis, Convolvulus arvensis, Cirsium setosum, Solanumnigrum, Acalypha australis, Digitaria sanguinalis, Echinochloa crusgalli, Setaria viridis, Setaria glauca, Leptochloa chinensis, Monochoria vaginalis, Sagittaria trifolia, Scirpus juncoides, Cyperus rotundus, Cyperus iria, Cyperus difformis, Fimbristylis, Portulaca oleracea, Xanthium sibiricum, Pharbitis nil, Conyza Canadensis, etc.) and major crop seeds (wheat, corn, rice, soybean, cotton, oilseed rape, millet, sorghum, potato, sesame, ricinus, etc.) were placed in plastic pots filled with soil, then covered with 0.5-2 cm of soil, allowed to grow in a good greenhouse environment. Two weeks after sowing, the test plants were treated in the 2-3 leaf stage. The tested compounds of the present invention were respectively dissolved in acetone, then added with Tween 80 and 1.5 liter/ha of emulsifiable concentrate of methyl oleate as synergist, diluted with a certain amount of water to obtain a solution of a certain concentration, and sprayed by a spray tower onto the plants. After the application, the plants were cultured for 3 weeks in the greenhouse, and then the experimental results of the weeding were recorded. The doses of the used compounds were 45, 90, 180, 360, 720 g a.i./ha, and the averages were obtained from three replicates.

In test [7] the test system is Abutilon theophrasti. Briefly: Weeding effect in post-emergence stage. The settings on record: 720 g a.i./ha, 3 weeks after application.
From the text: as §1, §2, §4

Test [8] relates to Alopecurus japonicus. Briefly: Weeding effect in post-emergence stage. As to conditions: 720 g a.i./ha, 3 weeks after application.
From the text: as §1, §2, §4

Test [9] deals with Leptochloa chinensis. Put plainly: Weeding effect in post-emergence stage. The settings on record: 720 g a.i./ha, 3 weeks after application.
From the text: as §1, §2, §4

Test [10] has as its system weeds. Put plainly: Activity test of the compositions, soil sealing treatment. As to conditions: Echinochloa crus-galli, 504 h, Echinochloa crusgalli, soil treatment (S), 21 days, read-out: Control effect (%) of B applied alone (B). Here is the method: (§5) The desired active ingredient B was purchased from a reagent company or synthesized by a known method. The technical materials were all dissolved in acetone and diluted with an aqueous solution containing 0.10% emulsifier Tween-80 which were to be used immediately after dilution.
Weeds are cultivated in a controllable sunlight greenhouse at 20 to 30° C., in natural light, and with relative humidity of 57% to 72%. […] The test soil was filled quantitatively to ¾ of the pots and then watered from the bottom of the pots to completely wet the soil to saturation. The test weed seeds were accelerated to just germinate, and then evenly and quantitatively sowed on the surface, then covered with 0.5-1 cm soil according to the seed size, and ready for use 72 hours after sowing.
(§6) Each treatment was repeated 4 times. Four pots with 20 weed seeds per pot were treated each time.
The well-sowed test materials were evenly placed on a platform with an area of 0.5 m^2, and solution of agents was sprayed on the soil by the 3WP-2000-type walking spray tower at a dosage of 450 kg/ha and at a spray pressure of 0.3 MPa. After all the solution was sprayed, the valve was closed. After 30 seconds, the door of the spray tower was opened, and the nutritional bowl was taken out. Then the valve was opened, and the spray tube was cleaned by spraying 50 ml of water.
(§7) A method for investigating absolute numbers was employed. Whole seedlings of survival weeds were cut off with a blade along the soil surface, and the fresh weight of the weeds was weighed with an analytical balance. For dead weeds, the fresh weight thereof was zero.
(§8) The investigation was performed 21 days after the treatment for only once in total.

The subject of test [11] is Cirsium setosum. Briefly: Activity test of the compositions, post-emergence treatment by foliage spray. The settings on record: foliage (F). The procedure: as §5
Weeds were cultivated by a pot culture method. […] Weed seeds with plump and uniform grains were selected, soaked in lukewarm water at 25° C. for 6 hours, and germinated in a 28° C. biochemical incubator (in darkness). The weed seeds that had just germinated were evenly placed on the surface of the soil and then covered with 0.5-1 cm soil according to the sizes of seeds.
The culture was carried out in a controllable sunlight greenhouse at 20 to 30° C., in natural light, and with relative humidity of 57% to 72%.
as §6
The agents were used for only once in total in the experiment. In the stage of 1.5-2 leaves, the weeds were thinned out to maintain 10 weeds per pot. Ten weeds were kept in each treatment, then continued to be cultured until Echinochloa crus-galli var. zelayensis reached the stage of 2-3 leaves, Cirsium setosum reached the stage of 5-6 leaves, Galium aparine reached the stage of 3-4 whorl leaves, Amaranthus retroflexus reached the stage of 3-5 leaves, Echinochloa crusgalli, Lolium multiflorum and Digitaria sanguinalis reached the stage of 3 leaves with one leaf not fully expanding for further treatment.
The well-cultured test materials were evenly placed on a platform with an area of 0.5 m^2, and solution of agents was sprayed on the stems and leaves thereof by the 3WP-2000-type walking spray tower at a dosage of 450 kg/ha and at a spray pressure of 0.3 MPa. After all the solution was sprayed, the valve was closed. After 30 seconds, the door of the spray tower was opened, and the nutritional bowl was taken out. Then the valve was opened, and the spray tube was cleaned by spraying 50 ml of water. After the treatment, the weeds were routinely cultured in a greenhouse.
as §7, §8

`CC1(C)CON(Cc2ccccc2Cl)C1=O` [Control compound B, clomazone]: the “weeding effect in pre-emergence stage, activity level (growth control rate)” value (from here on “weeding effect in pre-emergence stage”) in test [1] (6 g a.i./mu) was 1 (Level 1: growth control rate is greater than 0% and less than 15%); in test [1] (24 g a.i./mu), 9; in [2] (6 g a.i./mu), 8 (Level 8: growth control rate is greater than or equal to 80% and less than 100%); in [2] (12 g a.i./mu) it was 9; in [2] (24 g a.i./mu), 9; in test [3] (3 g a.i./mu), 2 (Level 2: growth control rate is greater than or equal to 15% and less than 30%). The “weeding effect in pre-emergence stage” value is 3 (Level 3: growth control rate is greater than or equal to 30% and less than 40%) in [3] (6 g a.i./mu); 7 (Level 7: growth control rate is greater than or equal to 70% and less than 80%) in [3] (12 g a.i./mu); 7 (Level 7: growth control rate is greater than or equal to 70% and less than 80%) in test [3] (24 g a.i./mu); 0 in test [4] (3 g a.i./mu); 4 (Level 4: growth control rate is greater than or equal to 40% and less than 50%) in [4] (6 g a.i./mu); 9 in test [4] (12 g a.i./mu). In addition, the “weeding effect in pre-emergence stage” value in test [4] (24 g a.i./mu) was 9; in [5] (3 g a.i./mu), 8 (Level 8: growth control rate is greater than or equal to 80% and less than 100%); in test [5] (6 g a.i./mu), 9; in [5] (12 g a.i./mu) it was 9; in [5] (24 g a.i./mu), 9. In addition, the “weeding effect in post-emergence stage, activity level (growth control rate)” value is 3 (Level 3: growth control rate is greater than or equal to 40% and less than 60%) in test [6]; 3 (Level 3: growth control rate is greater than or equal to 40% and less than 60%) in test [7]; 4 (Level 4: growth control rate is greater than or equal to 60% and less than 85%) in test [8]; 4 (Level 4: growth control rate is greater than or equal to 60% and less than 85%) in test [9]. Further, in test [10] (B at 2 g a.i./mu), the pest or weed control at 30 g/ha worked out at 33.2%. The pest or weed control at 60 g/ha in [10] (B at 4 g a.i./mu) turned out to be 46.8%.

On to `CC(C)N1C(=O)c2ccccc2NS1(=O)=O` [bentazon], for which the “Control effect (%) of B applied alone (B)” value in test [11] (B 8 g a.i./mu) was 12.4%; in test [11] (B 16 g a.i./mu), 25.8%.
